Measurements from US20060189693A1, “Methods of treatment with lxr agonists” (priority 2003, published 2006).

Legend:
LXRβ protein = target: T1, LXRβ protein (Homo sapiens, UniProt P55055); conditions: 1 μM; over a background reading of 10000 fluorescence units; cited from earlier work
T1 sequence (P55055 1-460): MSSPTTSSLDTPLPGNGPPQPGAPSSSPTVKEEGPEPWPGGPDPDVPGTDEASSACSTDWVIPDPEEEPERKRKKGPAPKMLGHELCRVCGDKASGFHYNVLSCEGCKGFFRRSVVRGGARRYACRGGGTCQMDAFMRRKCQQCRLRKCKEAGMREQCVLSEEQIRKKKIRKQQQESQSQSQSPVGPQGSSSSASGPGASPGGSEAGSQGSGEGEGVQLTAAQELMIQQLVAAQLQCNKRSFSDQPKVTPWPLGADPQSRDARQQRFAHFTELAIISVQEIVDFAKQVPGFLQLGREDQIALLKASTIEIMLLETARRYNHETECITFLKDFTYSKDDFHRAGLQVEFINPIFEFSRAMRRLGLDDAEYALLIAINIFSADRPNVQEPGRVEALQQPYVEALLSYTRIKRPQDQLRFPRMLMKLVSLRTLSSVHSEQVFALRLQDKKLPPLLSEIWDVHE

[1] = system: LV mass (cardiac hypertrophy) of aorta-constricted CD-1 mice; experiment: Effect on LV mass in aorta-constricted mice, dose range (Example 4); format: in vivo; design: unit not given here
Description: Male CD-1 mice (n=7 per group), 20-25 g in weight, were used for the experiment. Each mouse was anaesthetized with isoflurane 1-2%. Each mouse's aorta was exposed between the two renal arteries and was surgically constricted using a 30-gauge needle and 6.0 suture to induce heart growth. Seven days after surgery, baseline echocardiography was performed on each mouse to establish left ventricular mass (“LV mass”). Enalapril was orally administered to the mice at the dose of 10 mg/kg beginning on day 11 (4 days after baseline) and was continued once daily for 10 days. Formula IIa, suspended in 0.5% MC (vehicle), was orally administered to the mice at the doses of 3.0 mg/kg, 10 mg/kg, or 30 mg/kg once a day beginning on day 11. Formula Ia, suspended in 0.5% MC (vehicle), was orally administered to the mice at the dose of 50 mg/kg once a day beginning on day 11. The control group was administered with vehicle (0.5% MC). Repeat echocardiography was conducted on each mouse 14 and 21 days after surgery.

[2] = system: LV mass (cardiac hypertrophy) of aorta-constricted CD-1 mice; experiment: Effect on LV mass in aorta-constricted mice (Example 3); format: in vivo
Description: Male CD-1 mice (n=7 per group), 20-25 g in weight, were used for the experiment. Each mouse was anaesthetized with isoflurane 1-2%. Each mouse's aorta was exposed between the two renal arteries and was surgically constricted using a 30-gauge needle and 6.0 suture to induce heart growth. Seven days after surgery, baseline echocardiography was performed on each mouse to establish left ventricular mass (“LV mass”). Enalapril, the gold standard in treating cardiac hypertrophy, was orally administered to the mice at the dose of 10 mg/kg beginning on day 11 (4 days after baseline) and was continued once daily for 10 days. The compound of Formula IIa was suspended in 0.5% methylcellulose (MC) solution (vehicle) and was orally administered to the mice at the doses of 10 mg/kg twice a day, beginning on day 11. The control group was administered with vehicle (0.5% MC) beginning on day 11. Repeat echocardiography was conducted on each mouse 14 and 21 days after surgery.

In the case of C[C@H](CC[C@@H]1OC1(C)C)[C@H]1CC[C@H]2[C@@H]3CC=C4C[C@@H](O)CC[C@]4(C)[C@H]3CC[C@]12C [24(S), 25-epoxycholesterol], the “reading (fluorescence)” value (LXRβ protein) is given as 20000 fluorescence units.

In the case of O=C(O)Cc1cccc(OCCCN(Cc2cccc(C(F)(F)F)c2Cl)CC(c2ccccc2)c2ccccc2)c1 [Formula IIa, 2-(3-{3-[[2-Chloro-3-(Trifluoromethyl)Benzyl](2,2-Diphenylethyl)Amino]Propoxy}-Phenyl)Acetic Acid], the “Mean ± SE LV Mass” value ([1]; 3 mg/kg once a day oral from day 11, 14 days after surgery) is reported as 106.75 ± 2.43, the “Mean ± SE LV Mass” value ([1]; 3 mg/kg once a day oral from day 11, 21 days after surgery) is reported as 106.54 ± 2.56 and the “Mean ± SE LV Mass” value ([1]; 3 mg/kg once a day oral group, 7 days after surgery (baseline, before dosing)) is reported as 98.9 ± 4.59. The “Mean ± SE LV Mass” value ([1]; 10 mg/kg once a day oral from day 11, 14 days after surgery) was 96.31 ± 2.70, the “Mean ± SE LV Mass” value ([1]; 10 mg/kg once a day oral from day 11, 21 days after surgery) was 95.5 ± 2.97 and the “Mean ± SE LV Mass” value ([1]; 10 mg/kg once a day oral group, 7 days after surgery (baseline, before dosing)) was 98.01 ± 2.39. For the same compound, the “Mean ± SE LV Mass” value ([1]; 30 mg/kg once a day oral from day 11, 14 days after surgery) was 101.77 ± 2.25, the “Mean ± SE LV Mass” value ([1]; 30 mg/kg once a day oral from day 11, 21 days after surgery) was 101.99 ± 4.00 and the “Mean ± SE LV Mass” value ([1]; 30 mg/kg once a day oral group, 7 days after surgery (baseline, before dosing)) was 102.42 ± 2.27. For the same compound, the “Mean ± SE LV Mass” value ([2]; 10 mg/kg BID oral from day 11, 14 days after surgery) was 99.45 ± 1.98, the “Mean ± SE LV Mass” value ([2]; 10 mg/kg BID oral from day 11, 21 days after surgery) was 100.66 ± 2.43 and the “further increase in LV Mass” value ([2]; 10 mg/kg b.i.d. oral) was “prevented any further increase in LV Mass”. For the same compound, the “LV Mass compared to vehicle” value ([2]; 10 mg/kg b.i.d. oral, 14 and 21 days after surgery, p<0.05) was “statistically significant reduction” and the “Mean ± SE LV Mass” value ([2]; Formula IIa group 10 mg/kg BID oral, 7 days after surgery (baseline, before dosing from day 11)) was 100.88 ± 2.77.

For O=S(=O)(c1ccccc1)N(CC(F)(F)F)c1ccc(C(O)(C(F)(F)F)C(F)(F)F)cc1 [Formula Ia, N-(2,2,2-Trifluoroethyl)-N-[4-(2,2,2-Trifluoro-1-Hydroxy-1-Trifluoromethyl-Ethyl)-Phenyl]-Benzenesulfonamide], the “Mean ± SE LV Mass” value ([1]; 50 mg/kg once a day oral from day 11, 14 days after surgery) was 106.56 ± 3.86 and the “Mean ± SE LV Mass” value ([1]; 50 mg/kg once a day oral group, 7 days after surgery (baseline, before dosing)) was 101.85 ± 4.75.

For CCOC(=O)[C@H](CCc1ccccc1)N[C@@H](C)C(=O)N1CCC[C@H]1C(=O)O [Enalapril, reference compound], the “Mean ± SE LV Mass” value ([1]; Enalapril 10 mg/kg once daily oral from day 11, 14 days after surgery) was 95.1 ± 3.90, the “Mean ± SE LV Mass” value ([1]; Enalapril 10 mg/kg once daily oral from day 11, 21 days after surgery) was 91.4 ± 2.48 and the “Mean ± SE LV Mass” value ([1]; Enalapril group 10 mg/kg once daily oral, 7 days after surgery (baseline, before dosing)) was 101.02 ± 2.79. The “Mean ± SE LV Mass” value ([2]; 10 mg/kg once daily oral from day 11, 14 days after surgery) was 84.90 ± 1.11, the “LV Mass compared to vehicle” value ([2]; 10 mg/kg once daily oral, days 14 and 21, p<0.05) was “significantly (p<0.05) reduced LV Mass” and the “LV Mass compared to baseline hypertrophy (reversal of pathology)” value ([2]; 10 mg/kg once daily oral, p<0.05) was “significantly (p<0.05) reversed the pathology”. The “Mean ± SE LV Mass” value ([2]; Enalapril group 10 mg/kg once daily oral, 7 days after surgery (baseline, before dosing from day 11)) was 94.09 ± 1.950.
